Measured values as given in patent publication US20090324737A1, “Antimicrobial And Sporicidal Composition” (priority 2002, published 2009).

Tested on: Bacillus subtilis spores
Experiment: Sporicidal activity against Bacillus subtilis spore suspension (cfu pour-plate count vs distilled water controls)
Format: cell-based
Conditions: spore suspension diluted 1:100 into composition
Procedure: Spore suspensions were prepared by streaking standard agar plates with Bacillus subtilis and then incubating the plates for 48-72 hours at 37° C. The resulting bacteria and their spores were scraped from the plates and suspended by agitation in a 50% ethanol-water solution for four hours in order to lyse the vegetative cells. The spores were collected by centrifugation, washed three times and then suspended in 50% ethanol-water, resulting in a spore titer of 10^9 spores/mL. […] After treatment, the spore suspensions were diluted in distilled water and duplicate aliquots from each dilution were pour-plated on tripticase soy agar. Total colony-forming units (cfu) were counted after incubation at 37° C. for 24 hours. Sporicidal activity was directly proportional to the reduction of cfu compared to the distilled water controls.
Test results from representative compositions are summarized in Table 1 and the associated graph of the data (FIG. 2). In addition, test data for exposure to 0.1% L-alanine in the absence of sporicidal agents is included.

SMILES: C[C@H](N)C(=O)O [L-alanine]
- Test results of Spore-inactivating Compositions vs. Exposure Time (cfu compared to distilled water controls) (exposure time 0.00 hrs): 100.0%
- Test results of Spore-inactivating Compositions vs. Exposure Time (cfu compared to distilled water controls) (exposure time 0.25 hrs): 106.0%
- Test results of Spore-inactivating Compositions vs. Exposure Time (cfu compared to distilled water controls) (exposure time 0.50 hrs): 111.0%
- Test results of Spore-inactivating Compositions vs. Exposure Time (cfu compared to distilled water controls) (exposure time 1.00 hrs): 113.0%
- Test results of Spore-inactivating Compositions vs. Exposure Time (cfu compared to distilled water controls) (exposure time 4.00 hrs): 116.0%
